# PubChem BioAssay AID1549 (Sanford-Burnham Center for Chemical Genomics, 2009)
# The source made the active and inactive calls. How the calls were made is not given here.
# Target: Influenza A virus M2 proton channel (A/TW/4845/1999 H1N1)
# Test: NMR binding screen, influenza A virus M2 proton channel, Kd (AID 1549)
# Details: M2 protein
row,Compound,Kd
1,COc1ccc2c(c1OC)C(=O)OC2[C@H]1c2c(cc3c(c2OC)OCO3)CCN1C (some centres undefined),> 4 mM (inactive)
2,CC(C)=CC(=O)Nc1ccc2c(c1)OCO2,> 4 mM (inactive)
3,O=C1NC(=O)/C(=C/c2ccc(O)cc2)N1,> 4 mM (inactive)
4,CCNC(CC(=O)Nc1ccc(O)cc1)C(=O)O (centres undefined),> 4 mM (inactive)
5,O=C(Nc1ccccn1)C(=O)N1CCCC1,> 4 mM (inactive)
6,NCc1ccc(S(N)(=O)=O)cc1,> 4 mM (inactive)
7,O=C(O)c1ccc(N2CCOCC2)nc1,> 4 mM (inactive)
8,COC(=O)c1cc2cc(N)ccc2s1,> 4 mM (inactive)
9,Cn1c(=O)[nH]c2nc[nH]c2c1=O,> 4 mM (inactive)
10,CC(=O)OC1CCC2(O)CC1(C)CCC1C2CC1(C)C (centres undefined),> 4 mM (inactive)
11,Cc1nc(NC2=NCCC(=O)N2)nc2ccccc12,> 4 mM (inactive)
12,Cc1ccc(/C=C2/NC(=S)NC2=O)s1,> 4 mM (inactive)
13,Cc1cc(C)c(-c2cc(C(F)(F)F)no2)c(=O)[nH]1,> 4 mM (inactive)
14,Nc1cncc(C(=O)O)c1,> 4 mM (inactive)
15,NC(=NCCC[C@H](N)C(=O)O)NC(CCC(=O)O)C(=O)O (some centres undefined),> 4 mM (inactive)
16,Cc1cc(=O)n2[nH]c(COc3ccccc3)nc2n1,> 4 mM (inactive)
17,CC(=O)Nc1nnc(-c2ccccn2)o1,> 4 mM (inactive)
18,O=C(Nc1ccc2c(c1)CCC2)c1cnccn1,> 4 mM (inactive)
19,OCC1COc2ccccc2O1 (centres undefined),> 4 mM (inactive)
20,COc1ccc2c3c1O[C@H]1C[C@@H](O)C=C[C@@]31CCN(C)C2,> 4 mM (inactive)
21,O=C1c2cccnc2C(=O)N1Cc1ccc2c(c1)OCO2,> 4 mM (inactive)
22,Cc1noc(C)c1C(=O)N1CCN(c2ncccn2)CC1,> 4 mM (inactive)
23,O=C(C1CCCCC1)N1CCN(c2ccccc2F)CC1,> 4 mM (inactive)
24,CC(=O)Nc1ccc(S(=O)(=O)NC2=NCCS2)cc1,> 4 mM (inactive)
25,COc1ccc(CN2CCOCC2)c(C)c1C,> 4 mM (inactive)

row,Compound,Kd
1,CC(C)=CCC[C@](C)(O)C1CC=C(C)CC1 (some centres undefined),> 4 mM (inactive)
2,Cc1ccc(C)n1NC(=O)c1cccs1,> 4 mM (inactive)
3,CCn1c(-c2ccccc2)n[nH]c1=S,> 4 mM (inactive)
4,COc1ccc2c(c1)OCC(Cc1ccc(OC)c(O)c1)C2=O (centres undefined),> 4 mM (inactive)
5,COC(=O)c1cncc(C(=O)OC)c1,> 4 mM (inactive)
6,Nc1cc(F)ccc1-n1ccnc1,> 4 mM (inactive)
7,O=C(NC(=O)N1CCOCC1)c1ccccc1,> 4 mM (inactive)
8,Clc1ccccc1OCCn1ccnc1,> 4 mM (inactive)
9,CC(=O)Oc1cc(-c2coc3cc(OC(C)=O)c(OC(C)=O)c(OC(C)=O)c3c2=O)cc(OC(C)=O)c1OC(C)=O,> 4 mM (inactive)
10,COc1c2ccoc2c(OC)c2oc(=O)ccc12,> 4 mM (inactive)
11,Cc1nc(-c2ccccc2)sc1CO,> 4 mM (inactive)
12,O=C(O)c1cccc(CSc2ncccn2)c1,> 4 mM (inactive)
13,Nc1ccc(N2CCOCC2)c(Cl)c1,> 4 mM (inactive)
14,Nc1ccc2c(c1)OCCO2,> 4 mM (inactive)
15,Fc1ccc(F)c(CN2CCN(c3ncccn3)CC2)c1,> 4 mM (inactive)
16,O=C(Nc1cccc(O)c1)c1ccccc1,> 4 mM (inactive)
17,Fc1ccc(-c2n[nH]c(=S)n2CC2CCCO2)cc1 (centres undefined),> 4 mM (inactive)
18,Cn1nnc2cc(C(=O)O)ccc21,> 4 mM (inactive)
19,CCCCCCCCCCCCCCCCCCOCC(O)CO (centres undefined),> 4 mM (inactive)
20,COc1ccc(NC2=NCC(C)S2)cc1 (centres undefined),> 4 mM (inactive)
21,O=C1c2ccccc2C(=O)N1/N=C/c1ccc[nH]1,> 4 mM (inactive)
22,COC(=O)C1CCc2ccccc2N1 (centres undefined),> 4 mM (inactive)
23,COc1cc(O)ccc1C(C)=O,> 4 mM (inactive)
24,CCCCCC/C=C\CCCCCCCc1cccc(O)c1C(=O)O,> 4 mM (inactive)
